Here are results for six compounds from patent US11457627B2, “Plant activator” (IBIDEN CO., LTD., priority 2017, dated 2022).

The subject of assay [1] is resistance genes, PR1, PR2 and PDF1.2. Briefly: Resistance-inducing effect (expression of resistance genes overall). Type of assay: in vivo, Arabidopsis thaliana. To be noted: used instead of the oxo fatty acid. The protocol: As Example 1, 0.15% potassium bicarbonate aqueous solution containing 0.012% of 13-oxo-9,11-octadecadienoic acid was prepared. (9Z,11E)-13-oxo-9,11-octadecadienoic acid (13-oxoODA, Cayman Chemical Company, INC.) was used as a 13-oxo-9,11-octadecadienoic acid. As Comparative Examples, 0.15% potassium bicarbonate aqueous solution containing 0.012% of a fatty acid analog, which is selected from 13-HPODE ((9Z,11E)-13-hydroperoxy-9,11-octadecadienoic acid, Cayman Chemical Company, INC.), 9-HPODE ((10Z,12E)-9-hydroperoxy-10,12-octadecadienoic acid, Cayman Chemical Company, INC.), 9-HPOTE ((10E,12Z,15Z)-9-hydroperoxy-10,12,15-octadecatrienoic acid, Cayman Chemical Company, INC.), 9-HOTE ((10E,12Z,15Z)-9-hydroxy-10,12,15-octadecatrienoic acid, Cayman Chemical Company, INC.), 13-HPOTE ((9Z, 11E, 15Z)-13-hydroperoxy-9,11,15-octadecatrienoic acid, Cayman Chemical Company, INC.), 13-HOTE ((9Z, 11E, 15Z)-13-hydroxy-9,11,15-octadecatrienoic acid, Cayman Chemical Company, INC.) and 12-OPDA (12-oxo-phytodienoic acid, Cayman Chemical Company, INC.), and 0.15% potassium bicarbonate aqueous solution containing 0.012% of an α-ketol fatty acid were prepared. An aqueous solution of α-ketol fatty acid was prepared according to the preparation method described below.
As Example 2, 0.15% dipotassium hydrogenphosphate aqueous solution containing 0.012% of 13-oxo-9,11-octadecadienoic acid was prepared. (9Z,11E)-13-oxo-9,11-octadecadienoic acid (13-oxoODA, Cayman Chemical Company, INC.) was used as a 13-oxo-9,11-octadecadienoic acid. […]
(§1) Each of the aqueous solutions obtained from Examples 1 and 2 was applied using the watering to treat only the roots (underground part) of Arabidopsis thaliana plants grown in the soil. The total RNA was isolated 24 hours after treatment from each Arabidopsis thaliana plant treated with each of the aqueous solutions and from the untreated Arabidopsis thaliana plant as a control, and the cDNA was synthesized from the isolated total RNA, and then the expression levels of resistance genes, PR1, PR2 and PDF1.2 were analyzed by real-time PCR. […]

Assay [2] concerns PDF1.2 gene. Briefly: Evaluation of the resistance gene expression (real-time PCR), PDF1.2. Type of assay: in vivo, Arabidopsis thaliana. The conditions noted are these: 0.012% in 0.15% potassium bicarbonate (FIG. 1) or 0.15% dipotassium hydrogenphosphate (FIG. 2) aqueous solution, watering of roots, RNA 24 hours after treatment. As for the experimental part: (§2) As Example 1, 0.15% potassium bicarbonate aqueous solution containing 0.012% of 13-oxo-9,11-octadecadienoic acid was prepared. (9Z,11E)-13-oxo-9,11-octadecadienoic acid (13-oxoODA, Cayman Chemical Company, INC.) was used as a 13-oxo-9,11-octadecadienoic acid. […]
as §1

Assay [3] concerns the target T1, PPARα (peroxisome proliferator-activated receptor α) (Homo sapiens, UniProt Q07869).
T1 sequence (Q07869 1-468): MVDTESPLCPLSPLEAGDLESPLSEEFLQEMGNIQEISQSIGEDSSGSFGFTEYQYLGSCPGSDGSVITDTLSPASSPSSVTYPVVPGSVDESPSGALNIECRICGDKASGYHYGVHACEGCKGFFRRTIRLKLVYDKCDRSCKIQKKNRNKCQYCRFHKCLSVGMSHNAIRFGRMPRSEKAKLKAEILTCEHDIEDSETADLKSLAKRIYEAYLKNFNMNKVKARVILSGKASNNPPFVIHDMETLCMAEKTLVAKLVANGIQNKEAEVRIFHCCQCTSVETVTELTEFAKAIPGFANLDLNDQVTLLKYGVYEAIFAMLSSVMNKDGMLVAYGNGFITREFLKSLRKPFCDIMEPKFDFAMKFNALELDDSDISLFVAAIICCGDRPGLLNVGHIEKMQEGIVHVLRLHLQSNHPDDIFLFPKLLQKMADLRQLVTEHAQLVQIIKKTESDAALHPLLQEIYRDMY
To be noted: known from prior art; cited from earlier work.

Assay [4] relates to PR2 gene. Briefly: Evaluation of the resistance gene expression (real-time PCR), PR2. To be noted: 0.012% in 0.15% potassium bicarbonate (FIG. 1) or 0.15% dipotassium hydrogenphosphate (FIG. 2) aqueous solution, watering of roots, RNA 24 hours after treatment. Type of assay: in vivo, Arabidopsis thaliana. As for the experimental part:
as §2, §1

Assay [5] deals with PR1 gene. The assay can be described thus: Evaluation of the resistance gene expression (real-time PCR), PR1. Type of assay: in vivo, Arabidopsis thaliana. The conditions noted are these: 0.012% in 0.15% potassium bicarbonate (FIG. 1) or 0.15% dipotassium hydrogenphosphate (FIG. 2) aqueous solution, watering of roots, RNA 24 hours after treatment. The protocol: as §2, §1

Turning to “hydroperoxy octadecatrienoic acid [HPOTE]”, the “resistance-inducing effect (effect on the expression of resistance-inducing traits)” value (“resistance-inducing effect” below) in assay [1] is on record as “is not obtained”.
On to hydroperoxyoctadecadienoic acid [HPODE], for which, in assay [1], the “resistance-inducing effect” value was “is not obtained”.
Turning to hydroxy octadecatrienoic acid [HOTE], in assay [1], the “resistance-inducing effect” value is reported as “is not obtained”.
Consider `CC/C=C\C[C@@H]1C(=O)C=C[C@@H]1CCCCCCCC(=O)O` [12-OPDA, 12-oxo-phytodienoic acid], for which the “expression level of resistance gene PDF1.2” value in assay [2] is on record as “induced the expression”.
With `CCCCCC(=O)/C=C/C=C\CCCCCCCC(=O)O` [13-oxoODA, (9Z,11E)-13-oxo-9,11-octadecadienoic acid], the “agonist activity to activate transcription factor PPARα” value in assay [3] is “strong agonist activity”. The “expression level of resistance gene PR2” value in assay [4] is “significantly higher expressions”. Besides, in assay [5], the “expression level of resistance gene PR1” value is reported as “significantly higher expressions”.
As to `CC/C=C\CC(/C=C/C=C\CCCCCCCC(=O)O)OO` (centres unmarked) [13-HPOTE, (9Z, 11E, 15Z)-13-hydroperoxy-9,11,15-octadecatrienoic acid], the “resistance-inducing effect” value in assay [1] is “does not provide any resistance-inducing effect”.
